Source: article PMC10725351, “Niosomal formulation of mefenamic acid for enhanced cancer targeting; preparation, characterization and biodistribution study using radiolabeling technique” (Journal of Cancer Research and Clinical Oncology, 2023)

Assay: In vitro drug release study (dialysis bag, PBS pH 7.4, 37 °C) with kinetic model fitting
Type: physicochemical
Description: In comparison to the release of MEF from suspension, the MEF release from the optimal niosomal formulation was assessed. The dialysis method is the technique of choice for assessing the criteria of drug release from the niosomal formula. MEF release from niosomal formulation and suspension was monitored using a dialysis bag (MWCO12000 Da) at 37 °C for 24 h versus PBS (pH 7.4) to simulate the biological conditions. The optimal niosomes formula and suspension (1 ml of each) were loaded separately inside the dialysis tube, and the released quantity of MEF was evaluated in 100 ml of PBS with continuous stirring. At predefined intervals, (1, 2, 3, 4, 5, 6, 8, and 24 h), 2 ml of freshly formed PBS was added to replace two ml that were withdrawn from the release medium to assess the drug release rate. Lastly, the released concentrations of MEF were determined by examining the samples at 285 nm wavelength using a UV–visible spectrophotometer. This study was performed in triplicate (Targhi et al. [2021]).
The mathematical methodology utilized to determine the kinetics of the total released percentages (cumulative) of MEF from the niosomes formulation was linear regression analysis. These models include Higuchi, Korsmeyer Peppas, First Order, and Zero Order. In the end, the correlation coefficient values were compared to select the model that best fit the data. […]

Question: For Cc1cccc(Nc2ccccc2C(=O)O)c1C [MEF suspension, mefenamic acid], which “Cumulative MEF release” value (after 24 h, PBS pH 7.4, 37 °C, dialysis bag) is on record?
Answer: Its value is 55.36%.

Question: And the Order of permeation (best-fit release model)?
Answer: Its Order of permeation is “Diffusion”.
